Data from patent publication US11696913B2, “Prolonged ectoparasite-controlling agent for animal” (MITSUI CHEMICALS AGRO, INC., priority 2017, dated 2023).
Read-outs that look alike come from different tables or passages of the source.

What was measured:
Rhipicephalus sanguineus = assay: In vitro contact test with adult hard ticks (Rhipicephalus sanguineus); settings: read-out: acaricidal activity; for pest or weed control at 1 µg/cm2, 1 µg/cm2: dose 1 μg/cm^2, 48 h; for pest or weed control at 0.2 µg/cm2, 0.2 µg/cm2: dose 0.2 μg/cm^2, 48 h
In short: (§1)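 Adult R. sanguineus, I. ricinus, D. variabilis or A. americanum nymphs exposed in glass vials coated with compound from acetone (900 ppm gives 5 μg/cm^2). Held 48 h at room temperature (R. sanguineus) or 21° C., 85% rel. hum.; then heated at 45-50° C. ≤5 min, motionless or uncoordinated ticks scored dead/moribund.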

Ctenocephalides felis [1] = assay: Ctenocephalides felis in-vitro feeding test with fleas (CTECFE oral); settings: 48 hours, read-out: insecticidal feeding activity; for pest or weed control at 0.8 ppm: dose 0.8 ppm in citrated cattle blood; for pest or weed control at 4 ppm: dose 4 ppm in citrated cattle blood; for pest or weed control at 0.032 ppm: dose 0.032 ppm in citrated cattle blood; for pest or weed control at 0.16 ppm: dose 0.16 ppm in citrated cattle blood
In short: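 About 20 unfed adult cat fleas fed through parafilm on citrated cattle blood containing test substance (DMSO solution diluted in blood), held at about 37° C. Kill rate scored after 48 hours, 100% meaning all fleas dead.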

Ctenocephalides felis [2] = assay: In vitro contact test with fleas; settings: read-out: insecticidal activity; for pest or weed control at 0.04 µg/cm2, 0.04 µg/cm2: dose 0.04 μg/cm^2, dead or moribund fleas after 48 h; for pest or weed control at 0.2 µg/cm2, 0.2 µg/cm2: dose 0.2 μg/cm^2, dead or moribund fleas after 48 h; for pest or weed control at 1 µg/cm2, 1 µg/cm2: dose 1 μg/cm^2, dead or moribund fleas after 48 h
In short: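 Adult male and female cat fleas (5-10 per tube) placed in glass tubes coated with compound from acetone solution (900 ppm gives 5 μg/cm^2), kept at room temperature and ambient humidity. After 48 h, motionless or uncoordinated fleas scored dead or moribund; activity expressed as % dead or moribund.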

Dermacentor variabilis [3] = assay: Systemic treatment in-vivo test with American dog tick nymph on rats; settings: Dermacentor variabilis, ip, intraperitoneal injection, 10 mg/kg
Procedure: Systemic Treatment In-Vivo Test with American Dog Tick Nymph and Cat Flea on Rats
Type of study and overall study design: The method is a randomized non-blinded efficacy study in accordance with European animal welfare requirements. Rats (Rattus norvegicus) were randomized based on pre-treatment flea counts. The efficacy of treatment was determined by comparison of the flea and tick counts of different treatment groups versus the placebo-treated control group. The experimental unit was the individual study animal. Method and route of administration: The compound was applied in a suitable solvent and carrier (more specifically, added to glycerol formal; in case of poorly soluble compounds, a solvent mixture with up to 25% by volume of N-methyl pyrrolidone may be used.) considering the individual body weight as an intraperitoneal injection.
Experimental infestation: On the day of treatment and weekly thereafter, 30 ticks (D. variabilis nymphs) were released onto the back of each rat, and 30 fleas (C. felis) were released onto the back of each rat 24 h later.
Tick and Flea counting: Rats were thoroughly examined and ticks and fleas were manually removed 48 h (±4 h) after tick infestation and 24 h after flea infestation. Live fleas and live attached engorged ticks were counted. In non-evident cases, engorgement status was evaluated by squeezing the tick on a filter paper to find traces of blood as sign for engorgement.

Dermacentor variabilis [4] = assay: In vitro contact test with adult hard ticks (Dermacentor variabilis); settings: read-out: acaricidal activity; for pest or weed control at 0.2 µg/cm2, 0.2 µg/cm2: dose 0.2 μg/cm^2, 48 h; for pest or weed control at 1 µg/cm2, 1 µg/cm2: dose 1 μg/cm^2, 48 h
In short: as §1

Spodoptera litura = assay: Insecticidal testing against common cutworm; format: in vivo; settings: foliar, 144 h, concentration 100 ppm, cabbage leaf dip, second-stage larvae, after 6 days, read-out: pesticidal rate
From the text: Insecticidal Testing Against Common Cutworm (Spodoptera litura)

Laodelphax striatellus = assay: Insecticidal testing against small brown planthopper; format: in vivo; settings: 144 h, concentration 100 ppm, sprayed rice seedlings, after 6 days, read-out: pesticidal rate
In short: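 Acetone solution of compound at a set concentration sprayed onto rice seedlings, air-dried, then exposed to 10 planthoppers (one group). Held at 25° C; survival rate recorded after 6 days.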

[5] = SD 2, read-out: Geometric mean percent reduction in live tick (Dermacentor variabilis) counts compared to untreated control rats
[6] = SD 9, read-out: Geometric mean percent reduction in live tick (Dermacentor variabilis) counts compared to untreated control rats
[7] = SD 16, read-out: Geometric mean percent reduction in live tick (Dermacentor variabilis) counts compared to untreated control rats
[8] = SD 23, read-out: Geometric mean percent reduction in live tick (Dermacentor variabilis) counts compared to untreated control rats
[9] = SD 30, read-out: Geometric mean percent reduction in live tick (Dermacentor variabilis) counts compared to untreated control rats

| SMILES | pest or weed control at 1 µg/cm2, 1 µg/cm2 (Rhipicephalus sanguineus) | pest or weed control at 0.8 ppm (Ctenocephalides felis [1]) | pest or weed control at 4 ppm (Ctenocephalides felis [1]) | pest or weed control at 0.04 µg/cm2, 0.04 µg/cm2 (Ctenocephalides felis [2]) | pest or weed control at 0.2 µg/cm2, 0.2 µg/cm2 (Ctenocephalides felis [2]) | pest or weed control at 1 µg/cm2, 1 µg/cm2 (Ctenocephalides felis [2]) | pest or weed control at 0.2 µg/cm2, 0.2 µg/cm2 (Rhipicephalus sanguineus) | pest or weed control at 0.032 ppm (Ctenocephalides felis [1]) | pest or weed control at 0.16 ppm (Ctenocephalides felis [1]) | inhibition in vivo at 10 mg/kg (Dermacentor variabilis [3]; [5]) | inhibition in vivo at 10 mg/kg (Dermacentor variabilis [3]; [6]) | inhibition in vivo at 10 mg/kg (Dermacentor variabilis [3]; [7]) | inhibition in vivo at 10 mg/kg (Dermacentor variabilis [3]; [8]) | inhibition in vivo at 10 mg/kg (Dermacentor variabilis [3]; [9]) | pest or weed control at 0.2 µg/cm2, 0.2 µg/cm2 (Dermacentor variabilis [4]) | pest or weed control at 1 µg/cm2, 1 µg/cm2 (Dermacentor variabilis [4]) | pest or weed control at 100 ppm (Spodoptera litura) | pest or weed control at 0.0064 ppm (Ctenocephalides felis [1]; dose 0.0064 ppm in citrated cattle blood) | pest or weed control at 100 ppm (Laodelphax striatellus) |
| --- | --- | --- | --- | --- | --- | --- | --- | --- | --- | --- | --- | --- | --- | --- | --- | --- | --- | --- | --- |
| CN(C(=O)c1ccc(F)cc1)c1cccc(C(=O)Nc2c(I)cc(C(F)(C(F)(F)F)C(F)(F)F)cc2C(F)(F)F)c1F [Compound 24] | 90% | 95% | 95% | 95% | 95% | 95% |  |  |  |  |  |  |  |  |  |  |  |  |  |
| CN(C(=O)c1ccc(F)cc1)c1cccc(C(=O)Nc2c(I)cc(C(F)(C(F)(F)F)C(F)(F)C(F)(F)F)cc2C(F)(F)F)c1F (stereo not drawn) [Compound 37] | 90% | 95% | 95% | 95% | 95% | 95% | 90% | 95% | 95% | 100% | 100% | 99% | 99% | 80% | 90% | 90% |  |  |  |
| CN(C(=O)c1ccc(F)c(F)c1)c1cccc(C(=O)Nc2c(I)cc(C(F)(C(F)(F)F)C(F)(F)F)cc2C(F)(F)F)c1F [Compound 51] | 90% | 95% | 95% | 95% | 95% | 95% | 90% | 95% | 95% |  |  |  |  |  | 90% | 90% | ≥ 70% | 95% | ≥ 70% |
| CN(C(=O)c1ccc(C(F)(F)F)nc1)c1cccc(C(=O)Nc2c(I)cc(C(F)(C(F)(F)F)C(F)(F)F)cc2C(F)(F)F)c1F [Compound 66, N-(2-fluoro-3-((2-iodo-4-(perfluoropropan-2-yl)-6-(trifluoromethyl)phenyl)carbamoyl)phenyl)-N-methyl-6-(trifluoromethyl)nicotinamide] | 90% | 95% | 95% |  | 95% | 95% | 90% |  | 95% | 100% | 100% | 100% | 100% | 95% |  | 90% | ≥ 70% |  | ≥ 70% |
